From US20060057696A1, “Sugar chain synthases” (priority 2002, published 2006)
Marks after values point to notes of the source that are not given here.

What was measured:
Type in all cases: biochemical
[1] = molecular target: T1, PA-mST6Gal II (mouse ST6Gal II) (Mus musculus, UniProt Q76K27, R48S); assay: Sialyltransferase activity of PA-mST6Gal II toward acceptor substrates; conditions: for Relative rate (%) Mouse ST6Gal II: PA-mST6Gal II, incorporation with Galβ1,4GlcNAc taken as 100, 0.5 mg/ml glycolipids, 1 mg/ml glycoproteins and oligosaccharides
T1 construct: amino acids 31-524 in the case of mouse ST6Gal II; signal peptide of mouse immunoglobulin IgM (N); made in house; host or cells: COS-7 cells, transient expression of pcDSA-mST6Gal II; protein recovered from medium on IgG-Sepharose
T1 sequence (Q76K27 31-524 R48S): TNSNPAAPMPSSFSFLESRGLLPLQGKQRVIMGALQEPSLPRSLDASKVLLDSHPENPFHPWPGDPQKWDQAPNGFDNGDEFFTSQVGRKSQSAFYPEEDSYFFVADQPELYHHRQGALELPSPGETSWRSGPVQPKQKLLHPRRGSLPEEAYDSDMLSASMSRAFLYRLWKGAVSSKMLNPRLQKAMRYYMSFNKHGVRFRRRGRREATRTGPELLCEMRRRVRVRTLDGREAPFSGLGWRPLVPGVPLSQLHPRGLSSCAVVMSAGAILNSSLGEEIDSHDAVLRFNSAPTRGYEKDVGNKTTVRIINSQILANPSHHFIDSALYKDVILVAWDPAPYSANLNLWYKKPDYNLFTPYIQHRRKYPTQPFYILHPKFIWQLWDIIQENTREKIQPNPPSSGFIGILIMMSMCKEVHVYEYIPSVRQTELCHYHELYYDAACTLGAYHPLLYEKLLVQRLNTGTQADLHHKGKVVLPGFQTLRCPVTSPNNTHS
Method: (§1) Using each expression vector and lipofectamine (Invitrogen), transient expression was carried out in COS-7 cells (Kojima, N. et al. (1995) FEBS Lett. 360, 1-4). The proteins of the present invention secreted from the cells into which each expression vector had been introduced were named as PA-hST6Gal II (human) and PA-mST6Gal II (mouse). PA-hST6Gal II and PA-mST6Gal II were adsorbed to IgG-Sepharose (Amersham Pharmacia Biotech), and were then recovered from medium. Sialyltransferase activity was measured as follows according to the method of Lee et al. (Lee, Y.-C. et al. (1999) J Biol. Chem. 274, 11958-11967). A reaction mixture (10 μl) containing 50 mM MES buffer (pH 6.0), 1 mM MgCl2, 1 mM CaCl2, 0.5% Triton CF-54, 100 μM CMP-[^14C]-NeuAc, a substrate sugar chain (which was added at 0.5 mg/ml in the case of glycolipids, and at 1 mg/ml in the case of glycoproteins or oligosaccharides), and a PA-hST6Gal II or PA-mST6Gal II suspension, was incubated at 37° C. for 3 to 20 hours. Thereafter, in the case of glycolipids, the reaction product was purified with a C-18 column (Sep-Pak Vac 100 mg; Waters) and the purified product was used as a sample. In the case of oligosaccharides or glycoproteins, the reaction product was directly used as a sample. Thus, the obtained sample was subjected to analysis. In the case of oligosaccharides or glycolipids, the sample was spotted on a silica gel 60 HPTLC plate (Merck), and it was then developed with a developing solvent consisting of 1-propanol:ammonia water:water=6:1:2.5 (for oligosaccharides), or a developing solvent consisting of chloroform:methanol: 0.02% CaCl2=55:45:10 (for glycolipids). In the case of glycoproteins, analysis was carried out by SDS-polyacrylamide gel electrophoresis. The obtained radioactivities were visualized with a BAS2000 radio image analyzer (Fuji Film) and then quantified.

[2] = molecular target: T2, human ST6Gal I (Homo sapiens, UniProt P15907); assay: Sialyltransferase activity of human ST6Gal I toward acceptor substrates (comparison); conditions: for Relative rate (%) Human ST6Gal I: incorporation with Galβ1,4GlcNAc taken as 100, 0.5 mg/ml glycolipids, 1 mg/ml glycoproteins and oligosaccharides
T2 sequence (P15907 1-406): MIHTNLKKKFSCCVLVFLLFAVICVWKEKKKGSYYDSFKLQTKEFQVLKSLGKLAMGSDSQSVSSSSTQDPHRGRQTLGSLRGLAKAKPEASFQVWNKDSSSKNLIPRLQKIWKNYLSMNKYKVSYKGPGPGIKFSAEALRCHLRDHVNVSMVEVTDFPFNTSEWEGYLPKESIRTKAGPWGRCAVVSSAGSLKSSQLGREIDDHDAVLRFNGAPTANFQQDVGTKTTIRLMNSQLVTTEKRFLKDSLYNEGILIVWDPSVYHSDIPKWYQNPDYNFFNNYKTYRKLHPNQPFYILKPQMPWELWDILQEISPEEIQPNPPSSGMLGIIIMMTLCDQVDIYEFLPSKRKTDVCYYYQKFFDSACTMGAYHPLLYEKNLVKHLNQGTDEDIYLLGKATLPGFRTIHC
Method: as §1
In contrast, there were no glycolipids, which could be substrates of both the enzymes, as far as the inventors have examined. The activity of human ST6Gal I on oligosaccharides was also examined for comparison. […] (FIG. 10).

[3] = molecular target: T3, PA-hST6Gal II (human ST6Gal II) (Homo sapiens, UniProt Q96JF0); assay: Sialyltransferase activity of PA-hST6Gal II toward acceptor substrates; conditions: for Relative rate (%) Human ST6Gal II: PA-hST6Gal II, incorporation with Galβ1,4GlcNAc taken as 100, 0.5 mg/ml glycolipids, 1 mg/ml glycoproteins and oligosaccharides
T3 construct: amino acids 33-529 in the case of human ST6Gal II; signal peptide of mouse immunoglobulin IgM (N); made in house; host or cells: COS-7 cells, transient expression of pcDSA-hST6Gal II; protein recovered from medium on IgG-Sepharose
T3 sequence (Q96JF0 33-529): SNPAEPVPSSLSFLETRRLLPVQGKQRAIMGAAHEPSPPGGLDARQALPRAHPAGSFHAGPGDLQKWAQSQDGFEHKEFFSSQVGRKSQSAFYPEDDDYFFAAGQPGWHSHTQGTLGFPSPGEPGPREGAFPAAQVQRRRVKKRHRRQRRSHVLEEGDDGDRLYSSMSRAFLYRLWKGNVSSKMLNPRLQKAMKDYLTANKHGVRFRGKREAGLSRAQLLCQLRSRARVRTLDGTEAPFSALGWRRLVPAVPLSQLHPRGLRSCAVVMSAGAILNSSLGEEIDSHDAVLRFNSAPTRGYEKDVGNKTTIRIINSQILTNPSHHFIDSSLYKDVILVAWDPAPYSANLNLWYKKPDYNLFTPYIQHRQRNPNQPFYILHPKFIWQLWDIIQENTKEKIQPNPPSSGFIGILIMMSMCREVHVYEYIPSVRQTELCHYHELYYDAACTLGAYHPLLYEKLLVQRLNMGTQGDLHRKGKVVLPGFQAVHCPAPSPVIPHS
Method: as §1

Relative rate (%) Mouse ST6Gal II [1] | Relative rate (%) Human ST6Gal I [2] | Relative rate (%) Human ST6Gal II [3] [%] | activity of human ST6Gal I on the substrate (in words) [2] | incorporation obtained with Galβ1,4GlcNAc ([1]; Mouse ST6Gal II, the value set as 100) | incorporation obtained with Galβ1,4GlcNAc ([2]; Human ST6Gal I, the value set as 100) | incorporation obtained with Galβ1,4GlcNAc ([3]; Human ST6Gal II, the value set as 100) | Compound
0% | 0% | 0 |  |  |  |  | CC(=O)N[C@H]1C(O)O[C@H](CO)[C@H](O)[C@@H]1O[C@@H]1O[C@H](CO)[C@H](O)[C@H](O)[C@H]1O (stereo partly shown) [Type III, Galβ1,3GalNAc]
0% | 4.2% | 0 |  |  |  |  | Galβ1,3GlcNAc [Type I]
100* % | 100*** % |  |  | *, 2.74 pmol/h/ml medium. | ***, 8.14 pmol/h/ml medium. | **, 1.03 pmol/h/ml medium. | Galβ1,4GlcNAc [Type II]
0% | 0.3% | 0 |  |  |  |  | Galβ1,4GlcNAcβ1,3Galβ1,4Glcβ1-Cer [Paragloboside]

The next lines start with the compound.

Compound | Relative rate (%) Mouse ST6Gal II [1] | Relative rate (%) Human ST6Gal I [2] | Relative rate (%) Human ST6Gal II [3] [%] | activity of human ST6Gal I on the substrate (in words) [2] | incorporation obtained with Galβ1,4GlcNAc ([1]; Mouse ST6Gal II, the value set as 100) | incorporation obtained with Galβ1,4GlcNAc ([2]; Human ST6Gal I, the value set as 100) | incorporation obtained with Galβ1,4GlcNAc ([3]; Human ST6Gal II, the value set as 100)
CC(=O)N[C@H]1[C@H](O[C@H]2[C@@H](O)[C@@H](CO)O[C@@H](O[C@H]3[C@H](O)[C@@H](O)C(O)O[C@@H]3CO)[C@@H]2O)O[C@H](CO)[C@@H](O[C@@H]2O[C@H](CO)[C@H](O)[C@H](O)[C@H]2O)[C@@H]1O (stereo partly shown) [Lacto-N-neotetraose, Galβ1,4GlcNAcβ1,3Galβ1,4Glc] | 128.8% | 101.6% | 86.2 |  |  |  | 
OC[C@H]1O[C@@H](O[C@H]2[C@H](O)[C@@H](O)C(O)O[C@@H]2CO)[C@H](O)[C@@H](O)[C@H]1O (stereo partly shown) [Lactose, Galβ1,4Glc] | 0% | 8.7% | 0 | showed activity |  |  | 
Galβ1,3GalNAcβ1,4Galβ1,4Glcβ1-Cer [GA1] | 0% | 0% | 0 |  |  |  | 
Galβ1,3GlcNAcβ1,3Galβ1,4Glc [Lacto-N-tetraose] | 0% | 31.1% | 0 | showed activity |  |  | 
